Results on 52 molecules are retold here after PubChem BioAssay AID1996.

In brackets after ≈: the same amount, converted by molar mass. Bounds are passed on as bounds.

The conditions of the series: buffer; pH 7.4; 200.0 µM.
Take `COC(=O)c1ccc(N2CCN(C(C)=O)CC2)c(NC(=O)c2cccnc2)c1`: the kinetic solubility was above 57.4 µg/mL.

As for `O=C(Nc1ccc(Cl)cn1)C1COc2ccccc2O1` (configuration not stated), the kinetic solubility is 2 µg/mL (≈ 6.88 µM). As for `O=Cc1c(N2CCC3(CC2)OCCO3)nc2ccccn2c1=O`, the figure is above 47.3 µg/mL. For `Cc1ccccc1NC(=S)c1ccc2ccccc2n1` the value was below 0.3 µg/mL. As for `CC1=C(C(=O)c2ccccc2)C(c2ccc(O)cc2)NC(=S)N1` (configuration not stated), the figure is 21.8 µg/mL (≈ 67.2 µM); as for `CC(C)(C)NC(=O)N1c2ccccc2Sc2ccccc21`, 23 µg/mL (≈ 77.1 µM).

Consider `COc1ccc(C(=O)N(c2ccc(C)cc2)C2C=CS(=O)(=O)C2)cc1OC` (configuration not stated), for which the kinetic solubility was 55.3 µg/mL (≈ 143 µM).

Molecule `Cc1ccc2c(C(=O)CN3CCN(C(=O)c4ccco4)CC3)c(C)[nH]c2c1` gave a kinetic solubility of 14.6 µg/mL (≈ 40 µM). For `CCNc1nc(=S)nc(NCc2ccccc2)[nH]1` the value was 4.6 µg/mL (≈ 17.6 µM); for `CCOC(=O)C1=C(C)NC(=O)CC1c1cc2c(cc1[N+](=O)[O-])OCO2` (configuration not stated), 3.3 µg/mL (≈ 9.47 µM); for `Cn1c(=O)c2c(nc(Oc3ccccc3Cl)n2C)n(C)c1=O`, 16 µg/mL (≈ 49.9 µM).

The molecule `Cc1ccc(S(=O)(=O)NCc2ccccc2)cc1` registered a solubility (kinetic) of 25.9 µg/mL (≈ 99.1 µM).

In the case of `COc1ccc(CNC(=O)Cc2cn(C)c3ccccc23)c(OC)c1`, the kinetic solubility was above 50.8 µg/mL. For `CCOC(=O)c1c(O)c2cc(Cl)ccc2n(CC)c1=O` the value was above 44.4 µg/mL; for `CC1(C)CC2CC(C)(CN2C(=O)COC(=O)c2ccc(O)cc2O)C1` (configuration not stated), 23.4 µg/mL (≈ 67.4 µM); for `Cl.O=C(NC1CCCCC1)N1CCNCC1`, above 37.2 µg/mL. Molecule `CCCCCCN1C2=NCCCN2c2ccccc21.Cl` came in with a kinetic solubility above 44.1 µg/mL.

In turn, `Cc1cc2nc3c(=O)n(C4CCCCC4)c(=O)[nH]c3nc2cc1N` had a solubility (kinetic) of 2.8 µg/mL (≈ 8.61 µM). As for `O=C(Nc1ncccc1Cl)c1cc2ccccc2o1`, the figure is 11.4 µg/mL (≈ 41.8 µM); as for `O=C1NC(=O)N(Cc2ccc(F)cc2)C(=O)/C1=C\c1ccoc1`, 46.6 µg/mL (≈ 148 µM); as for `Cc1[nH]c2ccccc2c1C(=O)C(=O)NCCc1c[nH]c2ccccc12`, 2.6 µg/mL (≈ 7.53 µM). As for `COc1ccc(S(=O)(=O)N2CCc3ccccc32)cc1C(=O)Nc1ccc(NC(C)=O)cc1`, the solubility (kinetic) was determined as 7.2 µg/mL (≈ 15.5 µM). For `CN(C)C(=O)c1cc(C(=O)c2ccc(F)cc2C(F)(F)F)c[nH]1` the value was 12.6 µg/mL (≈ 38.4 µM); for `CC(C)(C)NC(=O)NC(=O)CN1CCN(Cc2ccccc2)CC1`, 45.3 µg/mL (≈ 136 µM); for `CCOC(=O)c1c(C=O)c2ccccc2n1Cc1ccccc1`, below 0.7 µg/mL.

In turn, `COC(=O)c1oc(-c2ccc(Cl)cc2)nc1C` returned a solubility (kinetic) of 2 µg/mL (≈ 7.95 µM). On to `CCOc1ccccc1CNCc1ccc(F)cc1.Cl`, for which the solubility (kinetic) worked out at 43.8 µg/mL. `N/C(Cc1nc2ccccc2s1)=N\O` showed a kinetic solubility of 29.3 µg/mL (≈ 141 µM).

`CCOc1ccc(C(=O)OC2CCCN(C)C2)cc1.Cl` (configuration not stated) had a kinetic solubility above 45 µg/mL. For `CCN1CCN(Cc2cccnc2)CC1` the value was 20.2 µg/mL (≈ 98.4 µM). As for `CCCNC(=O)c1cc2cc([N+](=O)[O-])ccc2s1`, the figure is 1.4 µg/mL (≈ 5.3 µM). Regarding `CC(C)N(C(=O)Cn1cnc2cc([N+](=O)[O-])ccc2c1=O)C(C)C`, the kinetic solubility was above 49.9 µg/mL. As for `CC(=O)Nc1ccc(S(=O)(=O)NC(C)c2ccccc2)cc1` (configuration not stated), the figure is above 47.8 µg/mL. As for `CCc1cc2ccccc2nc1SCC(=O)NC1CCCC1`, the figure is 0.3 µg/mL (≈ 0.954 µM); as for `COCC(=O)Nc1c(C(=O)N2CCCC2)oc2ccccc12`, 40.4 µg/mL (≈ 134 µM); as for `Cc1cc(Nc2ccc(N(C)C)cc2)n2ncnc2n1`, above 40.2 µg/mL. In the case of `CCOc1ncccc1C(=O)NCCCSc1ccccc1`, the solubility (kinetic) amounted to 34.2 µg/mL (≈ 108 µM). As for `C[Si](C)(C)n1ccnc1`, the figure is 14.6 µg/mL (≈ 104 µM); as for `O=[N+]([O-])c1cc(NCCO)c(N2CCCCCC2)c2nonc12`, 42.3 µg/mL (≈ 132 µM).

`O=C(c1ccc(F)cc1)N1CCOCC1` displayed a kinetic solubility above 31.4 µg/mL. For `CCOC(=O)CC1COCCN1Cc1cn(C)nc1-c1ccccc1F` (configuration not stated) the value was above 54.2 µg/mL; for `Cn1cc(C(=O)NCCO)c(=O)c2ccccc21`, above 36.9 µg/mL. In turn, `CCOc1ccc(NC(=O)Nc2nc(SCC)ns2)cc1` came in with a kinetic solubility of 0.8 µg/mL (≈ 2.47 µM). In turn, `COc1ccc(NC(=O)CN2CCCC2)cc1` yielded a kinetic solubility of 34 µg/mL (≈ 145 µM). As for `O=C(CNC(=O)c1ccccc1)OCC(=O)c1c[nH]c2ccccc12`, the figure is 18.6 µg/mL (≈ 55.3 µM); as for `CC1C(=O)C(C)C(c2ccc(O)cc2)NC1c1ccc(O)cc1` (configuration not stated), 45.4 µg/mL (≈ 146 µM); as for `NC(=O)COC(=O)c1ccc(-c2ccc(O)cc2)cc1`, 1.1 µg/mL (≈ 4.05 µM).

`O=c1[nH]c2ccc(Cl)cc2c(-c2ccccc2)c1[N+](=O)[O-]` displayed a kinetic solubility below 0.3 µg/mL.

In turn, `OCc1nc2ccccc2n1Cc1ccc(Cl)cc1` yielded a solubility (kinetic) of 28.4 µg/mL (≈ 104 µM).

Consider `CCN(c1ccccc1)S(=O)(=O)c1ccc(Oc2ccccc2C(C)=O)nc1`, for which the solubility (kinetic) turned out to be 18.6 µg/mL (≈ 46.9 µM). As for `Cn1c(=O)n(CC(N)=O)c(=O)c2c1nc(Br)n2Cc1ccccc1`, the kinetic solubility was above 58.8 µg/mL. For `NC(=O)c1cccc(NC(=O)Nc2ccc(Cl)cc2)c1` the value was 4.6 µg/mL (≈ 15.9 µM).

What is called kinetic solubility is solubility judged after dilution from a stock solution rather than from solid.
